“Also recorded” adds a separate entry of the source. Where a SMILES comes first, the peptide text is derived from it. Bridges are numbered along the chain shown (N, C = ends).
Columns and labels:
[1] = system: human immune cells in fresh blood (IL-6 release); assay: Determination of inflammatory parameters: release of Interleukin-6 from human fresh blood (ELISA); assay type: cell-based; settings: for release of the inflammation marker IL-6: human immune cells from blood incubated with the substance; for Concentration of Interleukin-6 (average of three measurements): human fresh blood, 24 hours at 37° C.
Description: For the examination, human immune cells from the blood are mixed with protein according to the present invention at a small concentration and are incubated in a manner common in laboratories. Subsequently, marker proteins for inflammations are determined in cell-free culture media by conventional methods.
Fresh human blood has a very sensitive reaction to pro-inflammatory molecules, among other things, with a release of the inflammation marker Interleukin-6 (IL-6). For determining the pro-inflammatory reaction, samples of human fresh blood at concentrations of the protein comprising amino acid sequence SEQ ID NO:2 were incubated at the following concentrations from 1 ng/ml to 10 μg/ml. After an incubation of 24 hours at 37° C., the inflammation marker Interleukin-6 was quantitatively determined in the solution via ELISA. LPS served as a positive control (concentrations of 3 ng/ml and 100 ng/ml).
In doing so, the measured data, which are indicated in TABLE 1 and which show the influence of the peptide protein comprising amino acid sequence SEQ ID NO:2 in comparison to LPS on the release of the inflammation marker Interleukin-6 from blood cells, were obtained.

[2] = system: pulmonary oedema / acute lung injury in Wistar rats; assay: Experimental animal study pulmonary oedema: lungs rinsed with acidified saline, arterial oxygen content; assay type: in vivo, rat; settings: for improvement in the lung function (increased oxygen content in arterial blood): laboratory animals, injected into the lungs as a fog or aqueous solution, within 3 to 5 hours; for oxygen content of the arterial blood, % relative to the value before rinsing the lungs / oxygen content in the blood after administering protein: rat; for oxygen content of the arterial blood, % relative to the value before rinsing the lungs: 125 μg protein intratracheal, 180 minutes after rinsing the lungs, 20% at 60 minutes and without protein; for oxygen content in the blood after administering protein: intratracheal as a fog one hour after lung rinsing, FIG. 3A/3B
Description: For the simulation of an acute lung injury and for the formation of a pulmonary oedema, the lungs of laboratory animals, e.g., mice or rats, can be rinsed several times with an acidified saline solution in a manner common in laboratories (for example, according to Isik F. et al., Eur J Cardiothorac Surg (2005); 28: 301-305). The result is a decrease in lung function.
Male Wistar rats (weighing from 250 g to 350 g) are anesthetized with Rompun® (0.02 ml/100 g) and Ketavet® (0.1 ml/100 g). The respiration is done with a cycle of 72 blows/minute, with an inhalation time of 0.2 seconds and an exhalation time of 0.5 seconds. The body temperature ranges, on average, from 37° C. to 39° C. Under normal conditions, the PaO2 (arterial oxygen partial pressure) ranges from 500 to 550 mm Hg.
For the simulation of an acute lung injury and for the formation of a pulmonary oedema, the lungs are rinsed 7 to 9 times with an acidified saline solution (pH 5).
After one hour, the proteins comprising amino acid sequence SEQ ID NO:1 or SEQ ID NO:2, dissolved in sterile saline solution, are administered intratracheally as a fog (maximum volume administered: 0.5 ml).
At intervals of 60 minutes each, arterial blood (0.1 ml) is withdrawn from the animals, and the oxygen content is determined in % relative to the normal value.
The verification of the stimulating effect of a protein according to the present invention, e.g., of a protein comprising amino acid sequence SEQ ID NO:1, SEQ ID NO:2 or SEQ ID NO:3, on the lung function is made via experimental animal studies in which a pulmonary oedema is induced. The experimental procedure is described in Example 5.
For the intratracheal inhalation, 125 μg protein are, in each case, dissolved in 150 mM saline solution pH 7.3. The oxygen content of the arterial blood is measured immediately before rinsing the lungs, 60 minutes after rinsing the lungs and 180 minutes after rinsing the lungs. The oxygen content immediately before rinsing the lungs is determined to be 100%. 60 minutes after the respective final lung rinsing, the oxygen content in the blood amounts to, on average, only 20%. Within 3 hours, the percentage oxygen content rises to values of […]

[3] = system: sodium ion channels of H441 cells; assay: Activation of ion channels of human epithelial cells, patch-clamp (whole cell / cell-attached); assay type: cell-based; settings: FIG. 2A/2B
From the text: Furthermore, a method common in laboratories is to detect the activation of ion channels by means of patch-clamp experiments, and this is described, for example, in Clunes M. T. et al, J Physiol Volume 557, No. 3, 809-819 (Jun. 15, 2004). For patch-clamp examinations of ion channels, a glass cannula is stretched thin and filled with a neutral buffer solution. The glass cannula (patch-clamp pipette) is carefully pressed onto an intact epithelial cell. A piece of membrane is located below the pipette. An electrical resistance is thereby produced between the interior of the pipette and the external solution. An electrode attached to a sensitive amplifier dips into the pipette solution.
The electrophysiological experiments were performed on human H441 cells. H441 cells are human lung epithelial cells which are involved in the diffusion of water and electrolytes in the lungs.
The H441 cells were obtained from the American Tissue Culture Collection and cultivated in conventional cell culture vessels in RPMI 1640 medium (Invitrogen). […]
This protocol was carried out by adding proteins comprising amino acid sequence SEQ ID NO:1 or SEQ ID NO:2 as well as the sodium channel inhibitor amiloride. The current dissipations thus obtained were stored and analyzed by means of the program PCLAMP 6.0.

CC[C@H](C)[C@H](NC(=O)[C@H](C)NC(=O)[C@H](CO)NC(=O)[C@H](CC(C)C)NC(=O)[C@H](CC(C)C)NC(=O)[C@H](CC(N)=O)NC(=O)[C@@H](N)C(C)C)C(=O)N[C@H]1CCCCNC(=O)CC[C@@H](C(=O)N2CCC[C@H]2C(=O)N[C@H](C(=O)N[C@@H](Cc2ccc(O)cc2)C(=O)N[C@@H](CC(C)C)C(=O)NCC(=O)O)[C@@H](C)CC)NC(=O)[C@H](Cc2ccc(O)cc2)NC(=O)[C@H](Cc2c[nH]c3ccccc23)NC(=O)[C@@H]2CCCN2C(=O)[C@H](CCCCN)NC(=O)[C@H](C)NC(=O)[C@H](CCC(=O)O)NC(=O)[C@H](C)NC(=O)CNC(=O)[C@H](CCC(=O)O)NC(=O)[C@@H]2CCCN2C(=O)[C@H]([C@@H](C)O)NC(=O)[C@H](CCC(=O)O)NC(=O)[C@H](CCCNC(=N)N)NC(=O)[C@H](CCC(N)=O)NC(=O)CNC(=O)[C@@H]2CCCN2C(=O)[C@H](CO)NC1=O [SEQ ID NO:1] (H-VNLLSAIKSPGQRETPEGAEAKPWYEPIYLG-OH; lactam 8-26)
release of the inflammation marker IL-6 [1]: cannot be detected | improvement in the lung function (increased oxygen content in arterial blood) [2]: distinct improvement in the lung function | oxygen content of the arterial blood, % relative to the value before rinsing the lungs [2]: 62% | oxygen content in the blood after administering protein [2]: increased | activation of the sodium ion channels (amplitude of electrical signal) [3]: activation of the sodium ion channels

C[C@@H]1NC(=O)CNC(=O)[C@H](CCC(=O)O)NC(=O)[C@@H]2CCCN2C(=O)[C@H]([C@@H](C)O)NC(=O)[C@H](CCC(=O)O)NC(=O)[C@H](CCCNC(=N)N)NC(=O)[C@H](CCC(N)=O)NC(=O)CNC(=O)[C@@H]2CCCN2C(=O)[C@H](CO)NC(=O)[C@@H](N)CCCCNC(=O)CC[C@@H](C(=O)O)NC(=O)[C@H](Cc2ccc(O)cc2)NC(=O)[C@H](Cc2c[nH]c3ccccc23)NC(=O)[C@@H]2CCCN2C(=O)[C@H](CCCCN)NC(=O)[C@H](C)NC(=O)[C@H](CCC(=O)O)NC1=O [SEQ ID NO:2, (NH2)Lys-Ser-Pro-Gly-Gln-Arg-Glu-Thr-Pro-Glu-Gly-Ala-Glu-Ala-Lys-Pro-Trp-Tyr-Glu(COOH)]
Concentration of Interleukin-6 (average of three measurements) ([1]; 1 ng/ml): less than 0.5 pg/ml | Concentration of Interleukin-6 (average of three measurements) ([1]; 3 ng/ml): less than 0.5 pg/ml | Concentration of Interleukin-6 (average of three measurements) ([1]; 1 μg/ml): less than 0.5 pg/ml | Concentration of Interleukin-6 (average of three measurements) ([1]; 10 μg/ml): less than 0.5 pg/ml | release of the inflammation marker IL-6 [1]: cannot be detected; also recorded: virtually no inflammation marker IL-6 is released | improvement in the lung function (increased oxygen content in arterial blood) [2]: distinct improvement in the lung function | oxygen content of the arterial blood, % relative to the value before rinsing the lungs [2]: 75% | oxygen content in the blood after administering protein [2]: increased | activation of the sodium ion channels (amplitude of electrical signal) [3]: activation of the sodium ion channels

From patent US8501679B2, “Cyclic, cystein-free protein” (priority 2007, dated 2013)
